Experimental data as given in the supplement of paper PMC10307832.

Tests used:
Assay in all cases: relative viability (nuclei count vs DMSO), 5 days (fraction); higher = more cells survive
201T = test system: 201T
Outline: (§1)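 Lung cancer cell lines were pin-tool dosed in 1536-well plates on the day after seeding, with either a lone drug or a fixed anchor-drug dose plus five library-drug doses (not always all listed) in √10 steps. Nuclei were counted on 4× images after 5 days. Relative viability is the ratio of treated-well to vehicle-well nuclei counts, with each value a median of duplicate plates.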

NCI-H2342 = test system: NCI-H2342
Outline: as §1

H3255 = test system: H3255
Outline: as §1

EKVX = test system: EKVX
Outline: as §1

HCC-44 = test system: HCC-44
Outline: as §1

EPLC-272H = test system: EPLC-272H
Outline: as §1

HCC-827 = test system: HCC-827
Outline: as §1

NCI-H647 = test system: NCI-H647
Outline: as §1

BEN = test system: BEN
Outline: as §1

NCI-H1975 = test system: NCI-H1975
Outline: as §1

NCI-H1666 = test system: NCI-H1666
Outline: as §1

NCI-H1437 = test system: NCI-H1437
Outline: as §1

NCI-H650 = test system: NCI-H650
Outline: as §1

LOU-NH91 = test system: LOU-NH91
Outline: as §1

LU99A = test system: LU99A
Outline: as §1

NCI-H2170 = test system: NCI-H2170
Outline: as §1

NCI-H2085 = test system: NCI-H2085
Outline: as §1

SW 1573 = test system: SW 1573
Outline: as §1

COR-L 105 = test system: COR-L 105
Outline: as §1

LCLC-97TM1 = test system: LCLC-97TM1
Outline: as §1

NCI-H2087 = test system: NCI-H2087
Outline: as §1

PC-3 [JPC-3] = test system: PC-3 [JPC-3]
Outline: as §1

`CC(=O)O[C@@]12CO[C@@H]1C[C@H](O)[C@@]1(C)C(=O)[C@H](O)C3=C(C)[C@@H](OC(=O)[C@H](O)[C@@H](NC(=O)OC(C)(C)C)c4ccccc4)C[C@@](O)([C@@H](OC(=O)c4ccccc4)[C@H]21)C3(C)C` [Docetaxel] + O=C(CCCCCCC(=O)Nc1ccccc1)NO [Vorinostat] (partner 1 µM) gave a relative viability (201T; first compound 0.0002 µM) of 0.885, a relative viability (201T; first compound 0.000632 µM) of 0.932 and a relative viability (201T; first compound 0.002 µM) of 0.516. For the same molecule, the relative viability (201T; first compound 0.006325 µM) was 0.478, the relative viability (201T; first compound 0.02 µM) was 0.291 and the relative viability (NCI-H2342; first compound 0.0002 µM) was 0.625. It also gave a relative viability (NCI-H2342; first compound 0.000632 µM) of 0.662, a relative viability (NCI-H2342; first compound 0.002 µM) of 0.569 and a relative viability (NCI-H2342; first compound 0.006325 µM) of 0.445. For the same molecule, the relative viability (NCI-H2342; first compound 0.02 µM) was 0.475, the relative viability (H3255; first compound 0.0002 µM) was 0.785 and the relative viability (H3255; first compound 0.000632 µM) was 0.826. The relative viability (H3255; first compound 0.002 µM) was 0.629, the relative viability (H3255; first compound 0.006325 µM) was 0.345 and the relative viability (H3255; first compound 0.02 µM) was 0.346. For the same molecule, the relative viability (EKVX; first compound 0.0002 µM) was 0.638, the relative viability (EKVX; first compound 0.000632 µM) was 0.6 and the relative viability (EKVX; first compound 0.002 µM) was 0.428. For the same molecule, the relative viability (EKVX; first compound 0.006325 µM) was 0.29, the relative viability (EKVX; first compound 0.02 µM) was 0.229 and the relative viability (HCC-44; first compound 0.0002 µM) was 0.994. For the same molecule, the relative viability (HCC-44; first compound 0.000632 µM) was 1.14, the relative viability (HCC-44; first compound 0.002 µM) was 0.861 and the relative viability (HCC-44; first compound 0.006325 µM) was 0.515. For the same molecule, the relative viability (HCC-44; first compound 0.02 µM) was 0.493, the relative viability (EPLC-272H; first compound 0.0002 µM) was 0.532 and the relative viability (EPLC-272H; first compound 0.000632 µM) was 0.162. The relative viability (EPLC-272H; first compound 0.002 µM) was 0.0568, the relative viability (EPLC-272H; first compound 0.006325 µM) was 0.0865 and the relative viability (EPLC-272H; first compound 0.02 µM) was 0.0652. It also gave a relative viability (HCC-827; first compound 0.0002 µM) of 0.367, a relative viability (HCC-827; first compound 0.000632 µM) of 0.903 and a relative viability (HCC-827; first compound 0.002 µM) of 0.528. For the same molecule, the relative viability (HCC-827; first compound 0.006325 µM) was 0.279, the relative viability (HCC-827; first compound 0.02 µM) was 0.238 and the relative viability (NCI-H647; first compound 0.0002 µM) was 0.486. It also gave a relative viability (NCI-H647; first compound 0.000632 µM) of 0.32, a relative viability (NCI-H647; first compound 0.002 µM) of 0.196 and a relative viability (NCI-H647; first compound 0.006325 µM) of 0.14. It also gave a relative viability (NCI-H647; first compound 0.02 µM) of 0.082, a relative viability (BEN; first compound 0.0002 µM) of 0.526 and a relative viability (BEN; first compound 0.000632 µM) of 0.526. It also gave a relative viability (BEN; first compound 0.002 µM) of 0.337, a relative viability (BEN; first compound 0.006325 µM) of 0.373 and a relative viability (BEN; first compound 0.02 µM) of 0.299. The relative viability (NCI-H1975; first compound 0.0002 µM) was 0.723, the relative viability (NCI-H1975; first compound 0.000632 µM) was 0.378 and the relative viability (NCI-H1975; first compound 0.002 µM) was 0.283. It also gave a relative viability (NCI-H1975; first compound 0.006325 µM) of 0.232, a relative viability (NCI-H1975; first compound 0.02 µM) of 0.161 and a relative viability (NCI-H1666; first compound 0.0002 µM) of 0.893. For the same molecule, the relative viability (NCI-H1666; first compound 0.000632 µM) was 0.992, the relative viability (NCI-H1666; first compound 0.002 µM) was 0.681 and the relative viability (NCI-H1666; first compound 0.006325 µM) was 0.706. It also gave a relative viability (NCI-H1666; first compound 0.02 µM) of 0.47, a relative viability (NCI-H1437; first compound 0.0002 µM) of 0.838 and a relative viability (NCI-H1437; first compound 0.000632 µM) of 0.522. It also gave a relative viability (NCI-H1437; first compound 0.002 µM) of 0.553, a relative viability (NCI-H1437; first compound 0.006325 µM) of 0.275 and a relative viability (NCI-H1437; first compound 0.02 µM) of 0.185. For the same molecule, the relative viability (NCI-H650; first compound 0.0002 µM) was 0.389, the relative viability (NCI-H650; first compound 0.000632 µM) was 0.326 and the relative viability (NCI-H650; first compound 0.002 µM) was 0.262. It also gave a relative viability (NCI-H650; first compound 0.006325 µM) of 0.2, a relative viability (NCI-H650; first compound 0.02 µM) of 0.171 and a relative viability (LOU-NH91; first compound 0.0002 µM) of 0.873. For the same molecule, the relative viability (LOU-NH91; first compound 0.000632 µM) was 0.628, the relative viability (LOU-NH91; first compound 0.002 µM) was 0.436 and the relative viability (LOU-NH91; first compound 0.006325 µM) was 0.397. For the same molecule, the relative viability (LOU-NH91; first compound 0.02 µM) was 0.347, the relative viability (LU99A; first compound 0.0002 µM) was 0.529 and the relative viability (LU99A; first compound 0.000632 µM) was 0.373. For the same molecule, the relative viability (LU99A; first compound 0.002 µM) was 0.278, the relative viability (LU99A; first compound 0.006325 µM) was 0.269 and the relative viability (LU99A; first compound 0.02 µM) was 0.173. It also gave a relative viability (NCI-H2170; first compound 0.0002 µM) of 0.787, a relative viability (NCI-H2170; first compound 0.000632 µM) of 0.551 and a relative viability (NCI-H2170; first compound 0.002 µM) of 0.388. It also gave a relative viability (NCI-H2170; first compound 0.006325 µM) of 0.162, a relative viability (NCI-H2170; first compound 0.02 µM) of 0.136 and a relative viability (NCI-H2085; first compound 0.0002 µM) of 0.82. It also gave a relative viability (NCI-H2085; first compound 0.000632 µM) of 0.734, a relative viability (NCI-H2085; first compound 0.002 µM) of 0.736 and a relative viability (NCI-H2085; first compound 0.006325 µM) of 0.355. It also gave a relative viability (NCI-H2085; first compound 0.02 µM) of 0.488, a relative viability (SW 1573; first compound 0.0002 µM) of 0.547 and a relative viability (SW 1573; first compound 0.000632 µM) of 0.305. It also gave a relative viability (SW 1573; first compound 0.002 µM) of 0.228, a relative viability (SW 1573; first compound 0.006325 µM) of 0.174 and a relative viability (SW 1573; first compound 0.02 µM) of 0.126. The relative viability (COR-L 105; first compound 0.0002 µM) was 0.889, the relative viability (COR-L 105; first compound 0.000632 µM) was 0.747 and the relative viability (COR-L 105; first compound 0.002 µM) was 0.392. For the same molecule, the relative viability (COR-L 105; first compound 0.006325 µM) was 0.413, the relative viability (COR-L 105; first compound 0.02 µM) was 0.368 and the relative viability (LCLC-97TM1; first compound 0.0002 µM) was 0.364. It also gave a relative viability (LCLC-97TM1; first compound 0.000632 µM) of 0.187, a relative viability (LCLC-97TM1; first compound 0.002 µM) of 0.116 and a relative viability (LCLC-97TM1; first compound 0.006325 µM) of 0.104. The relative viability (LCLC-97TM1; first compound 0.02 µM) was 0.0624, the relative viability (NCI-H2087; first compound 0.0002 µM) was 0.663 and the relative viability (NCI-H2087; first compound 0.000632 µM) was 0.203. It also gave a relative viability (NCI-H2087; first compound 0.002 µM) of 0.139, a relative viability (NCI-H2087; first compound 0.006325 µM) of 0.115 and a relative viability (NCI-H2087; first compound 0.02 µM) of 0.103. It also gave a relative viability (PC-3 [JPC-3]; first compound 0.0002 µM) of 0.673, a relative viability (PC-3 [JPC-3]; first compound 0.000632 µM) of 0.58 and a relative viability (PC-3 [JPC-3]; first compound 0.002 µM) of 0.395. The relative viability (PC-3 [JPC-3]; first compound 0.006325 µM) was 0.343 and the relative viability (PC-3 [JPC-3]; first compound 0.02 µM) was 0.21.
